The conditions of series [1]: Rats, fraction unbound; ref Supplemental Table S1; cited from earlier work.
For series [2] the following is noted: rat, in vivo, cited from earlier work.
For series [3] the following is noted: ref Supplemental Table S1, cited from earlier work; for HBD: number of hydrogen bond donors; for log D: octanol/water at pH 7.4; for PSA: polar surface area.
The nature of series [4]: Solubility in fasted state simulated intestinal fluid. The note with it: FaSSIF, 37 °C, pH 6.5, fassif, thermodynamic from solid. The class given is physicochemical.
For series [5] the following is noted: Humans, cited from earlier work; for CL: i.v.
A short description of series [6]: Intrinsic metabolic clearance determined in human liver microsomes. Conditions: pH 7.4. It is filed as in vitro ADME. In general terms: Microsomes from liver hold many membrane-bound enzymes, among them those of drug oxidation.
The conditions of series [7]: Humans, fraction unbound in plasma; ref Supplemental Table S1; cited from earlier work.
The conditions of series [8]: human, Caco-2, pH 7.4, with cyclosporine A 10 μM.
In a further series the test system is Caco‐2 cells (TC7 clone). Conditions: Equation 11 from measured P‐Caco2.

Converted amounts (≈) assume the structure as drawn. Where two headings read alike, the source gives them in different places.

A word on the log D: it is the decadic logarithm of the distribution of all forms, ionised or not, between an organic phase and buffer at a given pH. In general, solubility refers to the concentration that dissolves in the medium under given conditions. A low value points to a poorly soluble substance. As usually defined, the Vss is the apparent volume that relates the amount in the body to the concentration in plasma or blood. In general, microsomal CLint refers to a measure of how fast metabolising enzymes remove a compound, apart from limits set by blood flow. A lower microsomal CLint goes with slow turnover. By Papp is commonly meant a coefficient for how fast a substance crosses the barrier.

Consider `CN(C)CCCN1c2ccccc2Sc2ccc(Cl)cc21` [Chlorpromazine], for which the f up in [1] is 0.01. Moreover, the CL in series [2] (iv) was 52 mL/min/kg. Besides, in [2] (po), the F was 0.02. Moreover, in series [3], the HBD is 0, the “log D” value is reported as 2.82, the PSA was 1.8 and the “Base pKa” value is reported as 9.7. Further, the solubility at 24 h in [4] was 814 µg/mL (≈ 2550 µM). Further, in series [5] (ref Supplemental Table S2), the CL was 76.6 L/h and the Vss is 8.88 L/kg. In addition, the F in [5] (oral bioavailability, ref Supplemental Table S2) is on record as 0.31. For the same compound, the microsomal CLint at 1 μM in [6] amounted to 47 µL/min/mg. For the same compound, the f up in series [7] is 0.06.
Take `CN1CCN(C2=Nc3cc(Cl)ccc3Nc3ccccc32)CC1` [Clozapine]: the f up in series [1] is reported as 0.1. For the same compound, in series [3], the HBD is 1, the “log D” value is on record as 2.99 and the PSA is on record as 25.6. The compound also registered a Papp at 2 h, 1 μM in series [8] of 28.4 ×10⁻⁶ cm/s. Moreover, in the series on Caco‐2 cells (TC7 clone), the “Calculated P eff from P‐Caco2” value is 3.7 10^−4 cm/s. Further, in series [4], the solubility at 24 h was 350 µg/mL (≈ 1070 µM). For the same compound, in [5] (excreted unchanged in urine, ref Supplemental Table S1), the “Urinary excretion (f e)” value is given as < 1 % of dose. The CL in series [5] (ref Supplemental Table S2) is 13.02 L/h. Also, in [7], the f up is given as 0.06.
